{"source": "paper PMC10799292", "about": "“The Role of β-Defensin 1 Against Porphyromonas gingivalis Lipopolysaccharide-Mediated Inflammation in the THP-1 Cell Line” (Cureus, 2023)", "key": {"[1]": {"test_system": "Pg-LPS stimulated THP-1 cells", "experiment": "Cytotoxic evaluation of β-defensin 1 against Pg-LPS-treated THP-1 cells (MTT)", "type": "cell-based, human", "details": "β-defensin 1 at 260.85 ng/mL, 24 h, triplicates", "description": "The THP-1 cell line was cultured in DMEM and supplemented with 10% FBS, sodium bicarbonate, L-glutamine, and an antibiotic solution containing penicillin (100 U/mL), amphotericin B (2.5 µg/mL), and streptomycin (100 µg/mL). The cells were maintained in a 5% humidified CO2 incubator (NBS Eppendorf, Germany) at 37°C. To induce differentiation into macrophages, the THP-1 cell line was treated with 25 ng/mL phorbol 12-myristate 13-acetate (PMA) (cat. 91585, Sigma-Aldrich, USA) and incubated for 48 hours. Following incubation, the cells were seeded in a 96-well culture plate at a density of 5x10^4 cells/well and incubated for 24 hours in a humidified 5% CO2 incubator at 37°C.\nInverted phase contrast microscopy (IPCM) using an Olympus CKX41 microscope (Olympus, Japan) equipped with an Optika Pro5 CCD camera (Optika, Italy) was utilized to directly observe the cells. Cell viability was determined using the MTT (3-(4,5-Dimethylthiazol-2-yl)-2,5-diphenyltetrazolium bromide) assay (Sigma, M-5655). […] The absorbance of this colored solution can be quantified by measuring at approximately 570 nm using a spectrophotometer.\nThe whole plate was analyzed under a microscope with an IPCM, and the results were photographed. […] The purple formazan crystals were dissolved in dimethyl sulfoxide (DMSO) and the absorbance (OD) was measured at 570 nm using a microplate reader. […]"}, "LOX": {"test_system": "LOX", "experiment": "Lipoxygenase (LOX) activity inhibition in lysate of Pg-LPS stimulated THP-1 cells", "type": "cell-based, human", "details": "for LOX Percentage inhibition Average / LOX Percentage inhibition 1 / LOX Percentage inhibition 2: Pg-LPS 1 µg/mL, 24 h; for LOX Percentage inhibition Average: mean of duplicates; for LOX Percentage inhibition 1: replicate 1; for LOX Percentage inhibition 2: replicate 2", "description": "For inducing differentiation of THP-1 cells into macrophages, the cell line was premixed with 25 ng/mL PMA and incubated for 48 hours. After incubation, 5x10^4 cells were activated with Pg-LPS (LPS: 1 µg/mL) for one hour. Pg-LPS stimulated cells were exposed to different concentrations (6.25, 12.5, and 25 ng/mL) of β-defensin 1 and incubated for 24 hours. After incubation, the following anti-inflammatory assays were conducted utilizing the cell lysate.\nThe lipoxygenase (LOX) activity was determined using the method described by Axelrod in 1981 [12]. The reaction mixture consisted of 50 µL of cell lysate, Tris-HCl buffer (pH 7.4), and 200 µL of sodium linoleate. By determining absorbance at 234 nm (Agilent Cary 60), the formation of […], an indicator of LOX activity, was tracked. The percentage inhibition of the enzyme was computed as […]"}, "THP-1 cells [2]": {"test_system": "THP-1 cells", "experiment": "Intracellular ROS generation, DCFDA assay", "type": "cell-based, human", "details": "β-defensin 1 22.62 ng/mL 24 h after Pg-LPS 1 µg/mL 1 h; DCFDA 30 min, ex 470 nm, em 635 nm; untreated control 2379", "description": "Untreated control and Pg-LPS treated wells were also maintained. The cells were washed with PBS, and 50 µl of Dichlorodihydrofluorescein diacetate (DCFDA) was added, followed by incubation for 30 minutes. After incubation, excess dye was removed with PBS, and fluorescence was observed using a fluorescent microscope (Olympus CKX41 with Optika Pro5 CCD camera) and quantified with a fluorimeter at 470 nm excitation and emission at […] (Qubit 3.0, Life Technologies, USA), displaying the results in arbitrary units (AU).\nThe effect of β-defensin 1 on ROS generation in THP-1 cells stimulated with Pg-LPS was studied. DCFDA, a fluorogenic dye, measures hydroxyl, peroxyl, and other ROS activities within the cell. After entering the cell, DCFDA is deacetylated by cellular esterases into a non-fluorescent compound. This nonfluorescent chemical is then oxidized by ROS into […] (DCF), which, upon excitation with a blue filter, emits green fluorescence. When THP-1 cells were stimulated with Pg-LPS, there was a considerable increase in fluorescence, which decreased upon treatment with β-defensin 1, as shown in Figure 7 and Table 2."}, "THP-1 cells [3]": {"test_system": "THP-1 cells", "experiment": "Apoptosis by flow cytometry (Annexin V & Dead Cell)", "type": "cell-based, human", "details": "β-defensin 1 22.62 ng/mL 24 h after Pg-LPS 1 µg/mL; untreated control 87.25%", "description": "Untreated control and Pg-LPS treated wells were also maintained. To the tubes, 100 μL of the Muse™ Annexin V & Dead Cell Reagents were added separately. The tubes were completely mixed by pipetting up and down or spinning at a medium speed for three to five seconds, followed by 20 minutes of incubation in the dark at room temperature. The cells were examined with a Flow Cytometer, gated against untreated control cells, and evaluated for apoptosis with the Muse FCS 3.0 software.\nThe Muse Annexin V & Dead Cell Kit is a method to analyze cells in various stages of apoptosis, where fluorescently labeled Annexin V binds to phosphatidylserine (PS), which translocates to the outer surface of the cell membrane upon the onset of apoptosis. 7-AAD is excluded from live and healthy cells and permeates late-stage apoptotic and dead cells. […] The result is depicted in Figure 9."}, "[4]": {"details": "molecular docking; cited from earlier work", "from_the_text": "Two important functions of macrophages are to eliminate pathogens through phagocytosis and apoptosis of inflammatory cells and their subsequent clearance (efferocytosis). The present study analyzed the role of AMP, β-defensin 1, in Pg-LPS-stimulated THP-1 differentiated macrophage cells."}}, "note": "No end group written: not given here.", "data": [{"substance": "β-defensin 1: β-Defensin 1 peptide was purchased from ThermoFisher Scientific, USA; cationic antimicrobial peptide (DHYNCVSSGGQCLYSACPIFTKIQGTCYRGKAKCCK; ends and bridges not checked; cysteine pairing not given here; UniProt P60022 33-68, looked up)", "values": [{"measurement": "viability (in words)", "setting": "[1]; Pg-LPS (1 h) up to 1 µg/mL", "result": "increased the viability of THP-1 cells"}, {"measurement": "viability (in words)", "setting": "[1]; Pg-LPS beyond 1 µg/mL", "result": "decrease in viability"}, {"measurement": "LOX Percentage inhibition Average", "setting": "LOX; 6.25 ng/mL", "result": 21.485, "unit": "%"}, {"measurement": "LOX Percentage inhibition 1", "setting": "LOX; 6.25 ng/mL", "result": 21.23, "unit": "%"}, {"measurement": "LOX Percentage inhibition 2", "setting": "LOX; 6.25 ng/mL", "result": 21.74, "unit": "%"}, {"measurement": "LOX Percentage inhibition Average", "setting": "LOX; 12.5 ng/mL", "result": 38.08, "unit": "%"}, {"measurement": "LOX Percentage inhibition 1", "setting": "LOX; 12.5 ng/mL", "result": 38.85, "unit": "%"}, {"measurement": "LOX Percentage inhibition 2", "setting": "LOX; 12.5 ng/mL", "result": 37.31, "unit": "%"}, {"measurement": "LOX Percentage inhibition Average", "setting": "LOX; 25 ng/mL", "result": 54.675, "unit": "%"}, {"measurement": "LOX Percentage inhibition 1", "setting": "LOX; 25 ng/mL", "result": 55.2, "unit": "%"}, {"measurement": "LOX Percentage inhibition 2", "setting": "LOX; 25 ng/mL", "result": 54.15, "unit": "%"}, {"measurement": "LOX percentage inhibition (in words)", "setting": "LOX; 6.25, 12.5, and 25 ng/mL, Pg-LPS stimulated", "result": "increased in a concentration-dependent manner"}, {"measurement": "ROS generation, Fluorescence intensity", "setting": "THP-1 cells [2]", "result": 5006.24, "unit": "AU"}, {"measurement": "live cells", "setting": "THP-1 cells [3]", "result": 77.35, "unit": "%"}, {"measurement": "binding affinity with Pg-LPS (docking)", "setting": "[4]", "result": "good binding affinity with Pg-LPS"}]}]}
